Experimental findings from patent US20120172344A1, “INSULIN-PRODUCING CELL INDUCER, GLUCOSE INTAKE ENHANCER, AND THERAPEUTIC AGENT FOR DIABETES OR DIABETES COMPLICATIONS” (KYUSHU UNIVERSITY, NATIONAL UNIVERSITY CORPORATION, priority 2009, published 2012) are described below.

What all share (type): in vivo, mouse
For assay [1], the system named is muscles (soleus muscle) of Tg23 mice. The assay can be described thus: Experimental Example 3: glucose (2-deoxy-D-glucose) intake of soleus muscles. Particulars: Tg mice, Tx-E group vs Ct group, 20-40 weeks after the administration.
Experimental: Mice were sacrificed, and extensor digitorum longus (EDL) muscles and soleus muscles were quickly removed and processed. Both ends of each of the muscles were tied with suture (silk 4-0), and mounted on an incubation apparatus. First, the muscles were preincubated for 20 minutes in 6 ml of Krebs-Ringer bicarbonate (KRB) buffer (117 mM NaCl, 4.7 mM KCl, 2.5 mM CaCl2, 1.2 mM KH2PO4, 1.2 mM MgSO4, 24.6 mM NaHCO3, pH 7.5) containing 2 mM pyruvate. Then, the muscles were incubated in KRB buffer in presence or absence of insulin.
Immediately after muscle incubation, the muscles were transferred to KRB buffer containing 1 mM 2-deoxy-D-[^3H]glucose (1.5 μCi/ml) and 7 mM D-[^14C]mannitol (0.3 μCi/ml) (PerkinElmer Life Sciences) at 30° C., and incubated again for 10 minutes. When using insulin, a buffer containing insulin was used for incubation in a similar manner.
Glucose transport was terminated by dipping the muscles in KRB buffer containing 80 μmol/L cytochalasin B at 4° C., and then the muscles were frozen in liquid nitrogen. The muscles were weighed, and digested by incubating in 250 μl of 1 M NaOH at 80° C. for 10 minutes. Digests were neutralized with 250 μl of 1 M HCl. […] Radioactivity in aliquots of the digested muscle was determined by liquid scintillation counting for dual labels, and extracellular and intracellular spaces were calculated. […]
In assay [2] the test system is AKT and Glut4. The assay can be described thus: Experimental Example 3: intramuscular expression of AKT and Glut4 (western blot, immunostaining). An excerpt: (§1) Primary antibodies: Anti-insulin antibody (dilution rate 1:500; DAKO), anti-glucagon antibody (dilution rate 1:500; Linco Research Inc.), anti-DBA antibody (dilution rate 1:300; Vector Laboratories), anti-Pdx-1 antibody (dilution rate 1:1000; kindly provided by Chris V. E. Wright, Vanderbilt University), anti-collagen type IV antibody (dilution rate 1:250; PROGEN Biotechnik), and anti-Glut 4 antibody (dilution rate 1:1000; Chemicon).
The primary antibodies were detected by immunofluorescence labeling using secondary antibodies conjugated with Alexa 488 or Alexa 568 (1:200; Molecular Probes); third antibody conjugated with biotin-labeled secondary antibodies and streptavidin Alexa 488 or Alexa 568 (1:800; Vector Laboratories); or by an immunoperoxidase staining method using biotin-labeled secondary antibodies. Staining was visualized with diaminobenzidine. The sections were counterstained with hematoxylin. Images were captured on a BZ9000 microscope (Keyence), or in the confocal mode on an LSM 510 META confocal microscope (Carl Zeiss). Immunofluorescence intensity was measured in random fields (n=30/section) using LSM Zeiss software, and the result was expressed as average pixel intensity.
Mice were sacrificed, and the EDL, tibialis anterior, and gastrocnemius muscles were removed and snap-frozen in liquid nitrogen. […]
Protein levels were quantified using NIH Image. […]
On the technique in general: A western blot detects proteins with antibodies after separation by electrophoresis.

For assay [3], the system named is Tg23 mice. Nature of the assay: Experimental Example 5: β-cell neogenesis and electron microscopy of pancreas. As to the method:
Pancreases were fixed in 10% formalin, embedded in paraffin, and sliced into sections having a thickness of 2 μm. The sections were immunostained with overnight incubation at 4° C. in dilution solutions containing various primary antibodies described below.
as §1
The primary antibodies were detected by immunofluorescence labeling using secondary antibodies conjugated with Alexa 488 or Alexa 568 (1:200; Molecular Probes); third antibody conjugated with biotin-labeled secondary antibodies and streptavidin Alexa 488 or Alexa 568 (1:800; Vector Laboratories); or by an immunoperoxidase staining method using biotin-labeled secondary antibodies. Staining was visualized with diaminobenzidine. […] Immunofluorescence intensity was measured in random fields (n=30/section) using LSM Zeiss software, and the result was expressed as average pixel intensity.
All pancreatic islets, glucagon positive cells, and insulin-positive cells existing on a single pancreas section were photographed on a Keyence Biorevo microscope, and five to seven sections corresponding to areas that are at least 150 μm apart from one another were evaluated for a single pancreas (a single group includes five to eight males and six to nine females). Areas of β-cells and pancreatic islets were measured for each of the sections using Image Joint and Dynamic Cell Count software (Keyence). […]
Experimental Example 5: Effect of estradiol administration (III) Tg23 mice (23-24 weeks of age) were divided into two groups (each group: n=4 to 10): an estradiol administration group and a control group. […] Then, blood glucose levels of these mice were monitored every week. […]

On to `C[C@]12CC[C@@H]3c4ccc(O)cc4CC[C@H]3[C@@H]1CC[C@@H]2O` [estradiol, 17β-estradiol], for which the “amount of glucose intake of muscles” value in assay [1] was “significantly increases”. In addition, the “glucose transporter (Glut4) in muscle cells” value in assay [2] (Tg mice in Tx-E group) is reported as “increased”. Also, the “expression of intramuscular AKT and Glut4” value in assay [2] (Tg mice, Tx + 17β-estradiol pellet s.c.) is “upregulates”. Also, the “neogenesis of β-cells (insulin-producing cells and Pdx-1 in pancreatic duct epithelial cells)” value in assay [3] (Tg23 mice 23-24 weeks of age, Tx+E group vs Tg group) was “enhanced”. Also, the “mature β-cells” value in assay [3] (Treatment group, 48 weeks of age, electron microscope) is given as “formed”. In addition, the “insulin secretory granules in pancreatic tissue (electron microscope)” value in assay [3] (Tx+E group (Treatment), 48 weeks of age) is reported as “observed”.
